We go through two molecules from ChEMBL document CHEMBL2074003, “Transport of somatostatin and substance P by human P-glycoprotein” (FEBS Lett, 2004).

Data set [1] addresses T1, ATP-dependent translocase ABCB1 (Homo sapiens, UniProt P08183). The data set can be described thus: TP_TRANSPORTER: uptake in membrane vesicles prepared from human MDR1 transfected KB3-1 cells. It counts as functional, cell membranes, Membrane vesicle. The note with it: kb 3-1.
Data set [2] deals with T1, ATP-dependent translocase ABCB1. Kind of data set: TP_TRANSPORTER: uptake in membrane vesicles prepared from K562/ADM cells. It counts as functional, cell membranes, Membrane vesicle. The note with it: k562/adr.

T1 sequence (P08183 whole entry): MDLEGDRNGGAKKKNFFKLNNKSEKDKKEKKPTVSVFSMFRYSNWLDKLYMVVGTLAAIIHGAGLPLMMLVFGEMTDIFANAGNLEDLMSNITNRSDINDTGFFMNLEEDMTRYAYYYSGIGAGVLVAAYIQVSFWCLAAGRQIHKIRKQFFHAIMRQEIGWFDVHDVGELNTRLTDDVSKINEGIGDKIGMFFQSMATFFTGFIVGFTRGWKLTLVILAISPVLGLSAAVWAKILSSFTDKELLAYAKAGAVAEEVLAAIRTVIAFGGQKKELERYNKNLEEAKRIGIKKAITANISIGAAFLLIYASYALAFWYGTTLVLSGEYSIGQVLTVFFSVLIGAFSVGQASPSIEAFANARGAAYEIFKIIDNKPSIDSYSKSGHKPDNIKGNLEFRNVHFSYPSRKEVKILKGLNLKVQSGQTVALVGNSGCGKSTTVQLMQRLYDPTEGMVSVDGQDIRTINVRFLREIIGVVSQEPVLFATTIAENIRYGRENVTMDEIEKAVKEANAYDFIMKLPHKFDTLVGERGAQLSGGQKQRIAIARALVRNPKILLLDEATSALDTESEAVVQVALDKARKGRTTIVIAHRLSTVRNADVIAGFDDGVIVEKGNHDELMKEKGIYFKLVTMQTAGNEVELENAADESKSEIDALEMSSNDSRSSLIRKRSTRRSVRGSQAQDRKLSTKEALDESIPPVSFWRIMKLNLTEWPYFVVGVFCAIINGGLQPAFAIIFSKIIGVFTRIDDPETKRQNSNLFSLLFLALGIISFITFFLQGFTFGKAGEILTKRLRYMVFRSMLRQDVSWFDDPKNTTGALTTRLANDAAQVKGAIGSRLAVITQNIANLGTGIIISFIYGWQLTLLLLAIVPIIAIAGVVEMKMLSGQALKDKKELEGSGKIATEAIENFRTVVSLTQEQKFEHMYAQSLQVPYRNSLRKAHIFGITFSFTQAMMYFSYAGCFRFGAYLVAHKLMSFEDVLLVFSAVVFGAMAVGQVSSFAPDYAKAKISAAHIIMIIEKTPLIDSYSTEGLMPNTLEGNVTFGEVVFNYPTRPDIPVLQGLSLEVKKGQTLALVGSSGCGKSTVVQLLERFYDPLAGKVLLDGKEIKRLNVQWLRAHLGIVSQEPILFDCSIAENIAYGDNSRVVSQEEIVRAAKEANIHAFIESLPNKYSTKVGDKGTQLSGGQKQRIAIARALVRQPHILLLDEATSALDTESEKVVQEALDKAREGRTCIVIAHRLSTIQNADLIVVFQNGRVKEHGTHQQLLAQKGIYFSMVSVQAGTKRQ

Regarding `C[C@H](N)C(=O)NCC(=O)N[C@H]1CSSC[C@@H](C(=O)O)NC(=O)[C@H](CO)NC(=O)[C@H]([C@@H](C)O)NC(=O)[C@H](Cc2ccccc2)NC(=O)[C@H]([C@@H](C)O)NC(=O)[C@H](CCCCN)NC(=O)[C@H](Cc2c[nH]c3ccccc23)NC(=O)[C@H](Cc2ccccc2)NC(=O)[C@H](Cc2ccccc2)NC(=O)[C@H](CC(N)=O)NC(=O)[C@H](CCCCN)NC1=O` [SOMATOSTATIN], the Activity entry in data set [1] and in data set [2] was “substrate [+]” each time.

With `CSCC[C@H](NC(=O)[C@H](CC(C)C)NC(=O)CNC(=O)[C@H](Cc1ccccc1)NC(=O)[C@H](Cc1ccccc1)NC(=O)[C@H](CCC(N)=O)NC(=O)[C@H](CCC(N)=O)NC(=O)[C@@H]1CCCN1C(=O)[C@H](CCCCN)NC(=O)[C@@H]1CCCN1C(=O)[C@@H](N)CCCN=C(N)N)C(N)=O` [SUBSTANCE P], the Activity entry in data set [1] and in data set [2] was “substrate [+]” each time.
